Test results as given in PMC6727040, “Identification of a Novel Functional Corticotropin-Releasing Hormone (CRH2) in Chickens and Its Roles in Stimulating Pituitary TSHβ Expression and ACTH Secretion” (Frontiers in Endocrinology, 2019).
Entries after “also recorded” stand apart in the source; their conditions may differ. Ends that are not written are not given here. Peptide text beside a SMILES is read from it.

Tests used:
CRHR1 and CRHR2 = conditions: cited from earlier work
Excerpt: It has been well-documented that the roles of CRH-related peptides are mediated by two G protein-coupled receptors, namely CRH receptor 1 (CRHR1) and CRH receptor 2 (CRHR2), which share ~68% amino acid identity with each other ([6], [21], [23]). However, these neuropeptides have distinct preference for these two receptors.

pituitary [1] = conditions: cited from earlier work
Excerpt: However, UCN1 expression could not be detected in the hypothalamus and pituitary stalk ([10], [11]), and the selective receptors for UCN2 and UCN3 were not detected in the pituitary ([12]–[14]), hinting that the actions of ...

chicken pituitary = conditions: cited from earlier work
Excerpt: (§1) The relatively high potency of cCRH2 in activating cCRHR2 led us to examine whether like cCRH, cCRH2 can stimulate TSH expression in the chicken pituitary (Figure 8). […] Our finding raises a new concept that apart from CRH, TRH and GCG-like peptide (GCGL) [which are re ...

chicken CRHR1 (cCRHR1) = target: T1, chicken CRHR1 (cCRHR1) (Gallus gallus, UniProt Q90812); assay: pGL3-CRE-luciferase reporter assay in CHO cells expressing cCRHR1; format: cell-based; conditions: CHO cells transiently expressing cCRHR1; peptide 10^−12-10^−6M, 6 h; luciferase as fold of untreated control; N = 3 replicates
T1 construct: expressed in transfected cells; host or cells: CHO cells, transient transfection (the control used the empty pcDNA3.1(+) vector)
T1 sequence (Q90812 29-420): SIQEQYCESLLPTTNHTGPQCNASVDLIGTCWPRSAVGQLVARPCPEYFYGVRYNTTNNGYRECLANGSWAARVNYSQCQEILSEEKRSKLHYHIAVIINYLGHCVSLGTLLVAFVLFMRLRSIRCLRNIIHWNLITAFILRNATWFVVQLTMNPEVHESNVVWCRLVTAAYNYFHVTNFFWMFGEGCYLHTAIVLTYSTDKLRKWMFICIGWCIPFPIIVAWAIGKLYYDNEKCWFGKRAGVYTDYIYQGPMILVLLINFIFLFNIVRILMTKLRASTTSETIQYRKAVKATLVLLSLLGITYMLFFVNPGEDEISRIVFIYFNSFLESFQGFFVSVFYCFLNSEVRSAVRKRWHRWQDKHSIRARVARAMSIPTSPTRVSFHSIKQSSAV
Procedure: CHO cells were cultured in Dulbecco's Modified Eagle's Medium (DMEM) supplemented with 10% (vol/vol) fetal bovine serum, 100 U/ml penicillin G, and 100 µg/ml streptomycin (HyClone) in a 100 mm dish (Corning) and incubated at 37°C with 5% CO2. As described in our previous study ([35]), the functionality of cCRH2 was examined in CHO cells transiently expressing CRHR1 or CRHR2 by the pGL3-CRE-luciferase reporter system, which was utilized to monitor receptor-mediated activation of the intracellular cAMP/PKA signaling pathway. The luciferase activities in each treatment group were expressed as relative fold increase as compared with that of respective control groups (i.e., without peptide treatment).

pituitary [2] = conditions: cited from earlier work; remark: listed apart in the source
Excerpt: as §1

## urocortin I (DNPSLSIDLTFHLLRTLLELARTQSQRERAEQNRIIFDSV; ends and bridges not checked; UniProt P55089 83-122, looked up) [UCN1, CRH family peptide urocortin I]
CRHR1 and CRHR2
  affinity/selectivity for CRHR1 and CRHR2 (in words): binds to them with similar affinities
Pituitary [1]; in vitro
  ACTH-releasing activity in vitro (in words): potent ACTH-releasing activity in vitro

## urocortin II (IVLSLDVPIGLLQILLEQARARAAREQATTNARILARVGHC; Urocortin-2; UniProt Q96RP3 72-112, looked up) [UCN2, CRH family peptide urocortin II]
CRHR1 and CRHR2
  affinity/selectivity for CRHR1 and CRHR2 (in words): highly selective for CRHR2

## GCG-like peptide [GCGL]
Chicken pituitary
  chicken pituitary TSH expression/secretion (in words): reported to stimulate chicken pituitary TSH expression/secretion

## urocortin III (FTLSLDVPTNIMNLLFNIAKAKNLRAQAAANAHLMAQI; ends and bridges not checked; UniProt Q969E3 120-157, looked up) [UCN3, CRH family peptide urocortin III]
CRHR1 and CRHR2
  affinity/selectivity for CRHR1 and CRHR2 (in words): highly selective for CRHR2

## CC[C@H](C)[C@H](NC(=O)[C@H](CO)NC(=O)[C@H](CCC(N)=O)NC(=O)[C@H](CC(C)C)NC(=O)[C@H](CC(C)C)NC(=O)[C@H](CC(C)C)NC(=O)[C@H](CCCCN)NC(=O)[C@H](CC(N)=O)NC(=O)[C@H](CO)NC(=O)[C@H](CC(C)C)NC(=O)[C@H](C)NC(=O)[C@H](CCCCN)NC(=O)[C@H](CCC(N)=O)NC(=O)[C@H](C)NC(=O)[C@H](CC(C)C)NC(=O)[C@H](CCCNC(=N)N)NC(=O)[C@H](CCC(=O)O)NC(=O)[C@H](CCC(=O)O)NC(=O)[C@H](CCCNC(=N)N)NC(=O)[C@H](CO)NC(=O)[C@H](CCSC)NC(=O)[C@H](CCC(=O)O)NC(=O)[C@H](CC(C)C)NC(=O)[C@H](Cc1ccccc1)NC(=O)[C@H](CCC(=O)O)NC(=O)[C@H](CCCNC(=N)N)NC(=O)[C@H](CC(C)C)NC(=O)[C@H](CC(C)C)NC(=O)[C@H](Cc1c[nH]cn1)NC(=O)[C@H](Cc1ccccc1)NC(=O)[C@@H](NC(=O)[C@H](CC(C)C)NC(=O)[C@H](CC(=O)O)NC(=O)[C@H](CC(C)C)NC(=O)[C@H](CO)NC(=O)[C@H](CC(N)=O)NC(=O)[C@@H]1CCCN1C(=O)[C@H](CCCCN)NC(=O)CNC(=O)[C@@H](N)CCC(=O)O)[C@@H](C)O)C(N)=O [cCRH2] (H-EGKPNSLDLTFHLLREFLEMSREERLAQKALSNKLLLQSI-NH2)
Chicken CRHR1 (cCRHR1)
  EC50: 0.0286 µM

## corticotropin-releasing hormone [CRH]
CRHR1 and CRHR2
  activation of both CRH receptors in chickens (in words): equipotent activation of both receptors; also recorded: equipotent in activating both receptors
CRHR1 and CRHR2; mammals, Xenopus and zebrafish
  affinity for CRHR1 versus CRHR2 (in words): higher affinity to CRHR1 than to CRHR2
Pituitary [2]; non-mammalian vertebrates, including birds, amphibians and reptiles
  pituitary TSH secretion and/or expression (in words): elevate pituitary thyroid stimulating hormone (TSH) secretion and/or expression
Pituitary [2]; some non-mammalian vertebrates including chickens
  pituitary TSH secretion and synthesis (in words): responsible for stimulating pituitary TSH secretion and synthesis
Pituitary [1]
  ACTH secretion and synthesis from the pituitary (in words): stimulates adrenocorticotropic hormone (ACTH) secretion and synthesis from the pituitary

## CC[C@H](C)[C@H](NC(=O)[C@@H](NC(=O)[C@H](CCC(=O)O)NC(=O)[C@H](CCSC)NC(=O)[C@H](CC(C)C)NC(=O)[C@H](CCCCN)NC(=O)[C@H](CCCNC(=N)N)NC(=O)[C@H](CC(N)=O)NC(=O)[C@H](CO)NC(=O)[C@H](Cc1c[nH]cn1)NC(=O)[C@H](C)NC(=O)[C@H](CCC(N)=O)NC(=O)[C@H](CCC(N)=O)NC(=O)[C@H](C)NC(=O)[C@H](CC(C)C)NC(=O)[C@H](CCC(N)=O)NC(=O)[C@H](CCC(=O)O)NC(=O)[C@H](C)NC(=O)[C@H](CCCNC(=N)N)NC(=O)[C@H](C)NC(=O)[C@H](CCSC)NC(=O)[C@H](CCC(=O)O)NC(=O)[C@H](CC(C)C)NC(=O)[C@@H](NC(=O)[C@H](CCC(=O)O)NC(=O)[C@H](CCCNC(=N)N)NC(=O)[C@H](CC(C)C)NC(=O)[C@H](CC(C)C)NC(=O)[C@H](Cc1c[nH]cn1)NC(=O)[C@H](Cc1ccccc1)NC(=O)[C@@H](NC(=O)[C@H](CC(C)C)NC(=O)[C@H](CC(=O)O)NC(=O)[C@H](CC(C)C)NC(=O)[C@H](CO)NC(=O)[C@@H](NC(=O)[C@@H]1CCCN1C(=O)[C@@H]1CCCN1C(=O)[C@H](CCC(=O)O)NC(=O)[C@H](CCC(=O)O)NC(=O)[C@@H](N)CO)[C@@H](C)CC)[C@@H](C)O)C(C)C)[C@@H](C)CC)C(N)=O [cCRH]
Chicken CRHR1 (cCRHR1)
  EC50: 0.0003 µM
